Experimental data: US20080318943A1, “Compounds and Uses Thereof - 848” (ASTRAZENECA AB, priority 2007, published 2008)

Columns and labels:
GABAA receptor α2β3γ2 = target: T1, GABAA receptor α2β3γ2 (Homo sapiens, UniProt P18507+P47869); test: Two-electrode voltage-clamp potentiation of GABA EC10 current in Xenopus oocytes, GABAA2; format: cell-based; details: percentage potentiation of GABA EC10 current divided by that of diazepam
T1 construct: expressed in transfected cells; host or cells: Xenopus laevis oocytes injected with cRNA
Protocol: GABAA receptors were heterologously expressed in Xenopus oocytes by injecting cRNA corresponding to human α1, α2, α3, α5, β2, P3 and γ2 subunits of the GABAA receptor genes. The specific subunit combinations (subtypes) were as follows: α1β2γ2, α2β3γ2, α3β3γ2, and α5β3γ2. The EC10 of GABA is approximated for each cell. Stability of GABA-mediated (EC10) current is established. Modulatory effect of test compound is determined and compared across subtypes. […] Thus, the assay can characterize modulatory effects and determine subtype selectivity of test compounds on major subtypes of GABAA receptors.
Xenopus laevis frogs (Xenopus I, Kalamazoo, Mich.) were anesthetized using 0.15% tricaine. Surgically removed ovarian lobes were teased out in OR2 solution (82 NaCl, 2.5 KCl, 5 HEPES, 1.5 NaH2PO4, 1 MgCl2, 0.1 EDTA, in mM, pH 7.4). The oocytes were defolliculated by incubation in 25 mL OR2 containing 0.2% collagenase 1A (SIGMA) two times for about 60 minutes on a platform shaker and stored in Leibovitz's L-15 medium. Oocytes were injected the following day in 0.5× Leibovitz's L-15 medium containing […] gentamycin, 10 units/ml penicillin, and […] streptomycin.
Capped cRNAs from the linearized vectors containing human α1, β2 and γ2 subunits of the GABAA receptor genes were mixed in ratio of […]. Oocytes were injected with 25-50 nL of mixed RNA with an appx molar ratio for α1, β2, and γ2 as 1:1:10. Oocyte recordings were done 2-10 days after injection. The same methods apply to subtypes derived from α2β3γ2, α3β3γ2, and α5β3γ2, except for 1:1:1 ratio was used for α, β, and γ subunits.
All measurements were done in a medium containing ND-96 (96 NaCl, 2 KCl, 1.8 CaCl2.2H2O, 1 MgCl2.6H2O, 5 HEPES, in mM, pH 7.5). Two-electrode voltage-clamp recording was carried out using OpusXpress amplifier (Axon Instruments, Foster City, Calif.), which allows simultaneous recording from 8 oocytes. Oocytes were impaled with two electrodes of 1-2 MΩ tip resistance when filled with 3M KCl. Recordings were begun when membrane potential became stable at potentials negative to −50-−60 mV. Membrane potential was held at −60 mV. […] The concentration of GABA corresponded to the EC10 value calculated for each oocyte. The modulator pulses started 30 s before the GABA pulse so as to allow preincubation with the modulator. A set of 3 pulses with just GABA without modulator was given prior to the modulator-containing pulses to define the baseline GABA response. Two oocytes per each experiment were dedicated to observe the effect of diazepam on GABA response to ensure the presence of γ2 subunit in the GABAA pentameric complex, which imparts diazepam sensitivity to the complex.
Current amplitude (i) was measured from baseline to peak using Clampfit (Axon Inst., Foster City, Calif.). Potentiation was calculated as percent change from the baseline GABA current flux 100×(imod/icontrol)−1) where imod=current mediated by modulator+GABA and icontrol=current mediated by GABA alone. […] Similarly, a value of −50% potentiation means the presence of modulator caused a 50% decrease in the control current. Various other data shown here were fitted and plotted using GraphPad Prism (GraphPad Software, Inc. San Diego, Calif.). The percentage potentiation was converted to relative potentiation by dividing it with percentage potentiation value obtained from the same assay with diazepam as a control.

GABAA receptor α1β2γ2 = target: T2, GABAA receptor α1β2γ2 (Homo sapiens, UniProt P14867+P18507); test: Two-electrode voltage-clamp potentiation of GABA EC10 current in Xenopus oocytes, GABAA1; format: cell-based; details: percentage potentiation of GABA EC10 current divided by that of diazepam
T2 construct: expressed in transfected cells; host or cells: Xenopus laevis oocytes injected with cRNA
Method in brief: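 Human GABAA receptors expressed in Xenopus oocytes by cRNA injection (α:β:γ molar ratio ~1:1:10 for α1β2γ2, 1:1:1 for α2β3γ2), recorded 2-10 days later by two-electrode voltage clamp at −60 mV in ND-96, pH 7.5. Modulator preapplied 30 s before GABA at per-oocyte EC10. Peak-current percent potentiation over GABA alone, normalised to diazepam.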

[1] = target: T3, GABAA2 receptors (α2, β3, γ2 receptor subunits transfected into Sf9 cells) (Homo sapiens, UniProt P18507+P47869); test: GABAA2 Binding Method ([3H]-Flunitrazepam displacement); details: [3H]-Flunitrazepam ~2 nM, α2β3γ2 Sf9 membranes, 1 hr at 4° C.
T3 construct: host or cells: Sf9 cells (membranes)
Method in brief: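 Membranes from Sf9 cells expressing α2β3γ2 GABAA receptors incubated with ~2 nM (final) [3H]-flunitrazepam and test compound 1 h at 4 °C, then filtered on GF/B plates with cold-buffer washes. Flumazenil-defined controls; percent of control, IC50 and Ki calculated.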

T3 sequence (P47869 29-451): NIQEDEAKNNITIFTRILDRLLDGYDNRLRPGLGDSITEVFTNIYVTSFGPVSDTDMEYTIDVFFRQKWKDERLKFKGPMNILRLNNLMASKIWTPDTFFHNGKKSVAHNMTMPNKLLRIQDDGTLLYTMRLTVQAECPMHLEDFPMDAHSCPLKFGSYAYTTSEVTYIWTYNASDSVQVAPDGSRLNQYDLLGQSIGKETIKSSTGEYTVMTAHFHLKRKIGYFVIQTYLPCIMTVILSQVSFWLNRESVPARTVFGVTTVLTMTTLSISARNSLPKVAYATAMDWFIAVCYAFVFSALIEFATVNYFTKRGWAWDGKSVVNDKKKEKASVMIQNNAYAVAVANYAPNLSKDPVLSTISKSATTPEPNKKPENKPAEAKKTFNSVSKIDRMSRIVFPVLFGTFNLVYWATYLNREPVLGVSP
T3 sequence (P28472 26-473 partner): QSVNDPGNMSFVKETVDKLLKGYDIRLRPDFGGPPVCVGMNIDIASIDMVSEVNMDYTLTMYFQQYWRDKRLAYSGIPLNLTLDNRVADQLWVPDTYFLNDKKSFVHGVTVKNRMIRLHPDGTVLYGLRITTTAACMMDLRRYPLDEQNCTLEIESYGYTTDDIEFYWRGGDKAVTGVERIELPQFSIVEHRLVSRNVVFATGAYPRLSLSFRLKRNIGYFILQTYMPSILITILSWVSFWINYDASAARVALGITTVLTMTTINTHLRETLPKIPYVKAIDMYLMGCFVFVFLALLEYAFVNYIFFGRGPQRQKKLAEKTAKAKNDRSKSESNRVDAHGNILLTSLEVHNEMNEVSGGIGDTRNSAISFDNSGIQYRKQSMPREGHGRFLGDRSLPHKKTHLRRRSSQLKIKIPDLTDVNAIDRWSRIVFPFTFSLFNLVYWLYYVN
T3 sequence (P18507 40-475): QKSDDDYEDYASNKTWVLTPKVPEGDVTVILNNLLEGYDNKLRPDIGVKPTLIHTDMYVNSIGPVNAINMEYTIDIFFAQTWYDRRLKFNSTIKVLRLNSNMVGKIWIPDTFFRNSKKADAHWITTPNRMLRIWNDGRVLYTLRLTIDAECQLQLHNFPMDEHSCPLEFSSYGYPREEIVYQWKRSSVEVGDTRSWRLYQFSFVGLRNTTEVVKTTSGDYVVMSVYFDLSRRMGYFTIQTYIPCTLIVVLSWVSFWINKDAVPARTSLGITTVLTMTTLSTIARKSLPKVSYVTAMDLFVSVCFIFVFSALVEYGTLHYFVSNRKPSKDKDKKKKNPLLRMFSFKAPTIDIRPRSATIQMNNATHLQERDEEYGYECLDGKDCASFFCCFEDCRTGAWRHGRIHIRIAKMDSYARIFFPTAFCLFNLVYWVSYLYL
T1 sequence (P47869 29-451): as the sequence (P47869 29-451) above
T1 sequence (P28472 26-473 partner): as the sequence (P28472 26-473 partner) above
T1 sequence (P18507 40-475): as the sequence (P18507 40-475) above
T2 sequence (P14867 28-456): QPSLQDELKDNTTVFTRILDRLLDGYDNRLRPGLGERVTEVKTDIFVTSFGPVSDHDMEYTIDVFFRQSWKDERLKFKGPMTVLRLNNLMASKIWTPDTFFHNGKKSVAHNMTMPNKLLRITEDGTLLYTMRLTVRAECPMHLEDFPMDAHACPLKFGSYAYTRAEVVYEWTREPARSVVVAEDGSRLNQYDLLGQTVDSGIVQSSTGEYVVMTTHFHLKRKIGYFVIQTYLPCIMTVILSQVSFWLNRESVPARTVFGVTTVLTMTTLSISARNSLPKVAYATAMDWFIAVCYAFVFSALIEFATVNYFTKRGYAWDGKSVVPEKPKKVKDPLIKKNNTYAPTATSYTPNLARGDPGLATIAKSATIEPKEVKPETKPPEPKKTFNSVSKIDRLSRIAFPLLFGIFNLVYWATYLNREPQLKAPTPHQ
T2 sequence (P47870 25-512 partner limits assumed): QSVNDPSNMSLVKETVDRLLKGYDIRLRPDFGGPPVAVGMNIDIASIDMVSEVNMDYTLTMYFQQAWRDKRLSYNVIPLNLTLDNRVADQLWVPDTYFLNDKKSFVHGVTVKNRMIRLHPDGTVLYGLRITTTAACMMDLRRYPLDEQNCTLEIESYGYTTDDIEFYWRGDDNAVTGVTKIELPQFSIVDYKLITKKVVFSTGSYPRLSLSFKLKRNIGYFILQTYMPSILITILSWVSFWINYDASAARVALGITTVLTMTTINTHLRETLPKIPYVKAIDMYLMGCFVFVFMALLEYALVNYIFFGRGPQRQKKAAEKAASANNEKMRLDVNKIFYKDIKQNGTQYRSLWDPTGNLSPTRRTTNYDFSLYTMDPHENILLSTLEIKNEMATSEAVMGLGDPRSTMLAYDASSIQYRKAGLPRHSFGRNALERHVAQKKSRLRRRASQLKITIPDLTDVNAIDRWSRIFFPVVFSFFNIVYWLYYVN
T2 sequence (P18507 40-475): as the sequence (P18507 40-475) above

| Structure (SMILES) | Relative Potentiation for GABAA2 (GABAA receptor α2β3γ2) | Relative Potentiation for GABAA1 (GABAA receptor α1β2γ2) | Ki [1] |
| --- | --- | --- | --- |
| COc1ccc(-c2c(F)ccc3c(N)c4c(nc23)CN(C2CCC2)C4=O)cc1OC [9-Amino-2-cyclobutyl-5-(3,4-dimethoxyphenyl)-6-fluoro-2,3-dihydropyrrolo[3,4-b]quinolin-1-one] | 0.41 | 0.083 | 1 nM |
| Nc1c2c(nc3c(-c4nccnc4F)cccc13)CN(C1CCC1)C2=O [9-Amino-2-cyclobutyl-5-(3-fluoropyrazin-2-yl)-2,3-dihydropyrrolo[3,4-b]quinolin-1-one] | 0.14 | −0.03 | 2.17 nM |
| Nc1c2c(nc3c(-c4ncccc4F)cccc13)CN(C1CCC1)C2=O [9-Amino-2-cyclobutyl-5-(3-fluoropyridin-2-yl)-2,3-dihydropyrrolo[3,4-b]quinolin-1-one] | 0.19 | 0.017 | 4.69 nM |
| COc1nnccc1-c1cccc2c(N)c3c(nc12)CN(C1CCC1)C3=O [9-Amino-2-cyclobutyl-5-(3-methoxypyridazin-4-yl)-2,3-dihydropyrrolo[3,4-b]quinolin-1-one] | 0.43 | 0.082 | 4.73 nM |
| COc1cnccc1-c1cccc2c(N)c3c(nc12)CN(C1CCC1)C3=O [9-Amino-2-cyclobutyl-5-(3-methoxypyridin-4-yl)-2,3-dihydropyrrolo[3,4-b]quinolin-1-one] | 0.32 | 0.1 | 0.64 nM |
| COc1cc(F)ccc1-c1cccc2c(N)c3c(nc12)CN(C1CCC1)C3=O [9-Amino-2-cyclobutyl-5-(4-fluoro-2-methoxyphenyl)-2,3-dihydropyrrolo[3,4-b]quinolin-1-one] | 0.26 | 0.035 | 8.36 nM |
| COc1ncncc1-c1cccc2c(N)c3c(nc12)CN(C1CCC1)C3=O [9-Amino-2-cyclobutyl-5-(4-methoxy-pyrimidin-5-yl)-2,3-dihydropyrrolo[3,4-b]quinolin-1-one] | 0.52 | 0.083 | 0.631 nM |
| Cc1ccncc1-c1cccc2c(N)c3c(nc12)CN(C1CCC1)C3=O [9-Amino-2-cyclobutyl-5-(4-methylpyridin-3-yl)-2,3-dihydropyrrolo[3,4-b]quinolin-1-one] | 0.13 | 0.017 | 1.1 nM |
| COc1ccc(F)cc1-c1cccc2c(N)c3c(nc12)CN(C1CCC1)C3=O [9-Amino-2-cyclobutyl-5-(5-fluoro-2-methoxyphenyl)-2,3-dihydropyrrolo[3,4-b]quinolin-1-one] | 0.36 | 0.066 | 8.9 nM |
| COc1cc(-c2cccc3c(N)c4c(nc23)CN(C2CCC2)C4=O)c(F)cn1 [9-Amino-2-cyclobutyl-5-(5-fluoro-2-methoxypyridin-4-yl)-2,3-dihydropyrrolo[3,4-b]quinolin-1-one] | 0.33 | 0.065 | 6.7 nM |
| COc1cncc(-c2cccc3c(N)c4c(nc23)CN(C2CCC2)C4=O)c1 [9-Amino-2-cyclobutyl-5-(5-methoxy-pyridin-3-yl)-2,3-dihydropyrrolo[3,4-b]quinolin-1-one] | 0.26 | 0.038 | 1.86 nM |
| Cc1ccc(-c2cccc3c(N)c4c(nc23)CN(C2CCC2)C4=O)nc1 [9-Amino-2-cyclobutyl-5-(5-methylpyridin-2-yl)-2,3-dihydropyrrolo[3,4-b]quinolin-1-one] | 0.13 | 0.088 | 12.7 nM |
| Cc1nc(F)ccc1-c1cccc2c(N)c3c(nc12)CN(C1CCC1)C3=O [9-Amino-2-cyclobutyl-5-(6-fluoro-2-methylpyridin-3-yl)-2,3-dihydropyrrolo[3,4-b]quinolin-1-one] | 0.31 | 0.13 | 2.39 nM |
| Cc1cc(-c2cccc3c(N)c4c(nc23)CN(C2CCC2)C4=O)cnc1F [9-Amino-2-cyclobutyl-5-(6-fluoro-5-methylpyridin-3-yl)-2,3-dihydropyrrolo[3,4-b]quinolin-1-one] | 0.2 | 0.018 | 8.54 nM |
| COc1ccc(-c2cccc3c(N)c4c(nc23)CN(C2CCC2)C4=O)c(C)n1 [9-Amino-2-cyclobutyl-5-(6-methoxy-2-methylpyridin-3-yl)-2,3-dihydropyrrolo[3,4-b]quinolin-1-one] | 0.2 | −0.0033 | 5.03 nM |
| COc1ncc(-c2cccc3c(N)c4c(nc23)CN(C2CCC2)C4=O)cc1C [9-Amino-2-cyclobutyl-5-(6-methoxy-5-methylpyridin-3-yl)-2,3-dihydropyrrolo[3,4-b]quinolin-1-one] | 0.16 | 0.029 | 4.61 nM |
| COc1cccc(-c2cccc3c(N)c4c(nc23)CN(C2CCC2)C4=O)n1 [9-Amino-2-cyclobutyl-5-(6-methoxypyridin-2-yl)-2,3-dihydropyrrolo[3,4-b]quinolin-1-one] | 0.16 | 0.085 | 1.48 nM |
| COc1ccc(-c2cccc3c(N)c4c(nc23)CN(C2CCC2)C4=O)cn1 [9-Amino-2-cyclobutyl-5-(6-methoxypyridin-3-yl)-2,3-dihydropyrrolo[3,4-b]quinolin-1-one] | 0.14 | −0.035 | 6.48 nM |
| Cc1ccc(-c2cccc3c(N)c4c(nc23)CN(C2CCC2)C4=O)cn1 [9-Amino-2-cyclobutyl-5-(6-methylpyridin-3-yl)-2,3-dihydropyrrolo[3,4-b]quinolin-1-one] | 0.21 | −0.13 | 4.44 nM |
| Nc1c2c(nc3c(-c4ccc(N5CCOCC5)nc4)cccc13)CN(C1CCC1)C2=O [9-Amino-2-cyclobutyl-5-(6-morpholin-4-yl-pyridin-3-yl)-2,3-dihydropyrrolo[3,4-b]quinolin-1-one] | 0.12 | −0.025 | 8.81 nM |
| Nc1c2c(nc3c(-c4cnccn4)cccc13)CN(C1CCC1)C2=O [9-Amino-2-cyclobutyl-5-pyrazin-2-yl-2,3-dihydropyrrolo[3,4-b]quinolin-1-one] | 0.11 | −0.066 | 11.3 nM |
| Nc1c2c(nc3c(-c4ccccn4)cccc13)CN(C1CCC1)C2=O [9-Amino-2-cyclobutyl-5-pyridin-2-yl-2,3-dihydropyrrolo[3,4-b]quinolin-1-one] | 0.12 | 0.061 | 4.66 nM |
